# Reference: patent US20020045664A1, “Estrogen mimetics lacking reproductive tract effects” (The University of Georgia Research Foundation, Inc, priority 1999, published 2002)
# pEC50: −log10 of the molar value. “Also recorded” adds a separate entry of the source. Marks after values point to notes of the source that are not given here.
# Tests used:
# MCF-7 cells = settings: cited from earlier work; for maximal growth-stimulatory effect, as a percent of that of estradiol: MCF-7 cell proliferation assay; for pEC50: concentration at which growth stimulation was 50% maximal, read-out: MCF-7 Cell Growth EC50
# OVX rat [1] = experiment: Serum cholesterol in OVX rats; format: in vivo; settings: for Serum Cholesterol, mean (SD): experiment 1
# Procedure: (§1) In the first experiment 50 female Sprague-Dawley rats that were approximately 90 days of age and weighed an average of 240 g at the beginning of the study were used. Animal care and handling was carried out solely at the AAALAC accredited animal facility at the University of Georgia College of Pharmacy, in accordance with a protocol approved by the University of Georgia Institutional Animal Care and Use Committee. On the day of surgery (day 0), all rats were anesthetized with an intraperitoneal (i.p.) injection of ketamine hydrochloride and xylazine at doses of 50 mg/kg body weight and 10 mg/kg body weight, respectively. Ten rats were sham-operated during which the ovaries were exteriorized but replaced intact. Bilateral ovariectomies were performed in the remaining 40 rats from a dorsal approach. Each rat was housed individually at 25° C. with a light/dark cycle of 13 hours/11 hours. Food (Teklad 22/5 Rodent Diet, Madison, Wis.), with calcium and phosphate contents of 0.95% and 0.67%, respectively, was available ad libitum to all animals.
# (§2) Sham-operated rats (N=10) and one of the four groups of OVX rats (N=10) were injected subcutaneously (s.c.) with vehicle (5% benzyl alcohol in corn oil) 5 days per week for 5 weeks. […] The above treatments were initiated on the first day after surgery. The dose level of 17β-estradiol was believed to be optimal based on earlier studies (T. Wronski et al., Endocrinology 123:681-686 (1988)). […] Each rat was injected s.c. with demeclocycline and calcein (Sigma Chemical Co., St. Louis, Mo.) at a dose of 15 mg/kg body weight on the 10th and 3rd days before sacrifice, respectively, to label sites of bone formation.
# All rats were sacrificed by exsanguination from the abdominal aorta under ketamine/xylazine anesthesia. Failure to detect ovarian tissue and observation of marked atrophy of the uterine horns confirmed the success of ovariectomy. The body weight of each animal was recorded, as was uterine wet weight. […] Serum was obtained by centrifugation for 10 minutes at 3000 rpm, and samples were stored at −80° C. until analyzed. […]
# [2] = test system: MCF 7 human breast cancer cells; settings: estradiol-stimulated MCF-7 proliferation; cited from earlier work
# OVX rat [3] = experiment: Serum rat osteocalcin radioimmunoassay in OVX rats; format: in vivo; settings: for increase in serum OC: OVX animals, with respect to OVX vehicle controls; for Relative Serum OC Level, mean (SD): relative to OVX-17β-estradiol treated group (=100)
# Procedure: as §1, §2
# (§3) A second experiment, using 40 animals, was performed in exactly the same manner described above, in which effects of the s.c. administration of 3.7 mg/kg/day of 4HTA to one group of OVX animals was compared to the effects of vehicle or 17β-estradiol in three other groups (vehicle treated sham OVX, vehicle treated OVX, and 17β-estradiol-treated OVX rats).
# (§4) All rats were sacrificed by exsanguination from the abdominal aorta under ketamine/xylazine anesthesia. Failure to detect ovarian tissue and observation of marked atrophy of the uterine horns confirmed the success of ovariectomy. The body weight of each animal was recorded, as was uterine wet weight. Blood samples were allowed to coagulate at room temperature (2 hours) in a Vacutainer tube. Serum was obtained by centrifugation for 10 minutes at 3000 rpm, and samples were stored at −80° C. until analyzed. The right tibia was removed at necropsy, dissected free of muscle, and cut in half cross-sectionally with a hand-held saw (Dremel Moto Tool, Racine, Wis.). The bone samples were then placed in 10% phosphate-buffered formalin for 24 hours for tissue fixation.
# Materials, as well as standard protocols for their use, were obtained from Biomedical Technologies, Inc., Stoughton Mass. Serum samples from each member of the different treatment groups were diluted 1:20. Duplicate aliquots (100 μL) of each diluted sample were incubated in an orbital shaker at 80 rpm ([…]) for 16 hours with the first antibody and nonimmune serum in RIA buffer (final volume 0.5 mL). An aliquot of [^125I]-osteocalcin (10 nCi, 0.034 ng) in 100 μL of RIA buffer was then added to each tube and incubation was continued for 24 hours. Then the second (precipitating) antibody was added in 1 mL of modified buffer, and incubation was continued for 4 hours. Tubes were then centrifuged at 1500×g for 15 minutes. Pellets were washed with cold distilled water and recentrifuged as before. Supernatant was decanted and radioactivity in pellets was determined using a gamma counter. Serum osteocalcin levels were determined by comparing the sample values (cpm) to the linear region of a standard curve of cpm/pellet vs. the amount of osteocalcin present, obtained from incubations to which known amounts (0-0.35 ng) of osteocalcin had been added. […]
# OVX rat [4] = experiment: OVX rat: body weight and uterine wet weight; format: in vivo
# OVX rat [5] = experiment: OVX rat: cancellous bone histomorphometry, proximal tibial metaphysis; format: in vivo; settings: OVX rats; for osteoblast surface: 35 days after surgery; for Mineral apposition rate (MAR): 35 days postsurgery
# Procedure: as §1, §2, §3
# The proximal halves of the tibiae were dehydrated by immersion in ethanol, and embedded undecalcified in methyl methacrylate. Longitudinal sections (4- and 8-μm thick) were cut with AO Autocut/Jung 1150 or 2050 microtomes. The 4-μm thick sections were stained according to the Von Kossa method with a tetrachrome counterstain (Polysciences Inc., Warrington, Pa.). Bone measurements were performed in cancellous bone tissue of the proximal tibial metaphysis beginning at distances 1 mm distal to the growth plate-metaphyseal junction to exclude the primary spongiosa. In general, two sections of the proximal tibia, with a total of 40-50 mm of cancellous bone perimeter, were sampled in each animal with an appreciable amount of cancellous bone. Additional sections were sampled in osteopenic animals to approximate the cancellous bone perimeter sampled in animals with greater cancellous bone mass.
# Bone measurements were performed with the Bioquant Bone Morphometry System (R&M Biometrics Corp., Nashville, Tenn.) as described in T. Wronski et al. (Calcif. Tissue Int. 53:210-216 (1993)). Cancellous bone volume as a percentage of bone tissue area and osteoblast and osteoclast surfaces as percentages of total cancellous perimeter were measured in 4-μm thick, stained sections.
# Fluorochrome-based indices of bone formation were measured in unstained, 8-μm-thick sections of the proximal tibial metaphysis. The percentage of cancellous bone surface with a double fluorochrome label (mineralizing surface) and mineral apposition rate were measured with the Bioquant system. In addition, bone formation rate (tissue level, total surface referent) was calculated by multiplying mineralizing surface by mineral apposition rate (H. Frost, Bone histomorphometry: analysis of trabecular bone dynamics. In: Recker R. R., Ed. Bone Histomorphometry: Techniques and Interpretation. Boca Raton, Fla.: CRC Press; 1983; 109-132).
# OVX rat [6] = experiment: OVX rat: cortical bone histomorphometry, tibial diaphysis; format: in vivo; settings: OVX rats
# Procedure: In the first experiment 50 female Sprague-Dawley rats that were approximately 90 days of age and weighed an average of 240 g at the beginning of the study were used. Animal care and handling was carried out solely at the AAALAC accredited animal facility at the University of Georgia College of Pharmacy, in accordance with a protocol approved by the University of Georgia Institutional Animal Care and Use Committee. On the day of surgery (day 0), all rats were anesthetized with an intraperitoneal (i.p.) injection of ketamine hydrochloride and xylazine at doses of 50 mg/kg body weight and 10 mg/kg body weight, respectively. […]
# Bone measurements were performed with the Bioquant Bone Morphometry System (R&M Biometrics Corp., Nashville, Tenn.). Cortical bone tissue area and bone marrow area were measured in one section per animal at a magnification of 20×. Cortical bone area was calculated by subtracting marrow area from cortical bone tissue area. Cortical width was measured from the periosteal to the endocortical surfaces at four equally spaced sites at the anterior (cranial), posterior (caudal), medial, and lateral aspects of each cross-section. […]
# Fluorochrome-based indices of bone formation were measured under UV illumination at magnifications of 100× and 200× for mineralizing surface and mineral apposition rate, respectively. […]
# OVX rat [7] = experiment: OVX rat: body weight and uterine wet weight; format: in vivo; settings: for greater uterine weight compared to vehicle-treated OVX animals: 17β-estradiol: average of both experiments, 4HTA: vs respective OVX vehicle controls; for Body Weight, mean (SD) / Uterine Weight, mean (SD): OVX rats, 17β-estradiol 10 μg/kg/day; for Body Weight, mean (SD): s.c. 5 days/week for 5 weeks; for increase in overall body weight after ovariectomy: five-week course of the two studies, subcutaneous five days per week; for Uterine Weight, mean (SD): s.c. 5 weeks
# Procedure: as §1, §2, §3, §4
# estrogen receptor = estrogen receptor (Homo sapiens, UniProt P03372); settings: cited from earlier work
# Sequence of estrogen receptor (P03372 whole entry): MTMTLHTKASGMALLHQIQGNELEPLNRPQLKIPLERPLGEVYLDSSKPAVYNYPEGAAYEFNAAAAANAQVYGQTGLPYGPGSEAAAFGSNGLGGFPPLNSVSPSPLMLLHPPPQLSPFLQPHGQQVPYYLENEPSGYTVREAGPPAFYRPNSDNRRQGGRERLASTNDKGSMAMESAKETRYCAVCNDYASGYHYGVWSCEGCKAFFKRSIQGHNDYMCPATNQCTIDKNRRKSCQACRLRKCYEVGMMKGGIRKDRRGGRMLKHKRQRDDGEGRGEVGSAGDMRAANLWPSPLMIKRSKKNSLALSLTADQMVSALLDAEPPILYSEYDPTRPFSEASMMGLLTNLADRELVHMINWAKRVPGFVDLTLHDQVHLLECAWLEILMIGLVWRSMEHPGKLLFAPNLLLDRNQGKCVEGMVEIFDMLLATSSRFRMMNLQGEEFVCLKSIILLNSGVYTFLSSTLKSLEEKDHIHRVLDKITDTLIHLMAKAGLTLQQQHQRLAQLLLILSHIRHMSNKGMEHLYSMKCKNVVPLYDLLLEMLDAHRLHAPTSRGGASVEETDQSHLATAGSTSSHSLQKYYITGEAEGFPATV
# [8] = test system: rat uterus (uterine weight gain); parameters: Rat Uterotrophic Assay % Efficacy: concentration or dose not given beside the values; settings: cited from earlier work; for Rat Uterotrophic Assay ED50: dose at which uterine weight gain was 50% maximal; for Rat Uterotrophic Assay % Efficacy: in vivo
# [9] = test system: mouse uterus (uterine weight gain); settings: dose at which uterine weight gain was 50% maximal; cited from earlier work
# [10] = experiment 1, HPPA 3.6 mg/kg/day
# [11] = experiment 2, 4HTA 3.7 mg/kg/day
smiles,measurement,setting,value
"O=C(O)COc1ccc(C(Cc2ccccc2)c2ccc(O)cc2)cc1 (stereo not shown) [HPPA, 4-[1-(4-hydroxyphenyl)-2-phenylethyl]phenoxyacetic acid]","maximal growth-stimulatory effect, as a percent of that of estradiol",MCF-7 cells,102%
same,MCF-7 Cell Growth % Efficacy,MCF-7 cells,100%
same,pEC50,MCF-7 cells,7.80
same,reduction in serum cholesterol with respect to vehicle-treated OVX animals,OVX rat [1]; 10 μmol/kg sc,10%
same,"Serum Cholesterol, mean (SD)",OVX rat [1],"72 (1.9)^b,c,d mg/dL"
same,estrogen antagonist activity in growth inhibition assay in the presence of estrogen,[2],did not function as an estrogen antagonist; also recorded: no activity as an antiestrogen
same,increase in serum OC,OVX rat [3],34%
same,"Rat Uterotrophic Assay ED50 (HPPA, Ex. III)",OVX rat [4]; s.c.,>3400 µg/day
same,Emax,"OVX rat [4]; sc, read-out: Rat Uterotrophic Assay % Efficacy (HPPA), s.c., Ex. III",0%
same,osteoblast surface,OVX rat [5]; experiment 1,partially suppressed
same,Mineral apposition rate (MAR),OVX rat [5]; experiment 1,no effect
same,periosteal bone formation rate,OVX rat [6],did not inhibit
same,greater uterine weight compared to vehicle-treated OVX animals,OVX rat [7],did not differ appreciably
same,"Body Weight, mean (SD)",OVX rat [7]; [10],"342 (23)^b,c g"
same,increase in overall body weight after ovariectomy,OVX rat [7],not observed
"CCC(=C(c1ccc(O)cc1)c1ccc(OCC(=O)O)cc1)c1ccccc1 [4HTA, (E,Z)-2-{4-[1-(p-hydroxyphenyl)-2-phenyl]-1-butenyl}phenoxyacetic acid]","maximal growth-stimulatory effect, as a percent of that of estradiol",MCF-7 cells,79%
same,estrogen antagonist activity in growth inhibition assay in the presence of estrogen,[2],weak antagonist potency; also recorded: weakly inhibits
same,increase in serum OC,OVX rat [3],did not differ
same,"Relative Serum OC Level, mean (SD)",OVX rat [3]; experiment 2,188 (42)^c
same,greater uterine weight compared to vehicle-treated OVX animals,OVX rat [7],25%
same,"Body Weight, mean (SD)",OVX rat [7]; [11],"305 (12)^b,c g"
same,increase in overall body weight after ovariectomy,OVX rat [7],not observed
same,relative estrogen receptor binding affinity (RBA),estrogen receptor,20% of estradiol binding affinity
"CC/C(=C(\c1ccccc1)c1ccc(OCCN(C)C)cc1)c1ccccc1 [trans-tamoxifen, (Z)-2-[4-(1,2-diphenyl-1-butenyl)phenoxy]-N,N-dimethylethanamine]",MCF-7 Cell Growth % Efficacy,MCF-7 cells,21%
same,Rat Uterotrophic Assay ED50,[8],10 µg/day
same,Rat Uterotrophic Assay % Efficacy,[8],12%
CC/C(=C(/c1ccccc1)c1ccc(OCCN(C)C)cc1)c1ccccc1 [cis-tamoxifen],MCF-7 Cell Growth % Efficacy,MCF-7 cells,100%
same,Rat Uterotrophic Assay ED50,[8],40 µg/day
same,Rat Uterotrophic Assay % Efficacy,[8],52%
COc1ccc(C(Cl)=C(c2ccc(OC)cc2)c2ccc(OC)cc2)cc1 [chlorotrianisene],MCF-7 Cell Growth % Efficacy,MCF-7 cells,89%
same,pEC50,MCF-7 cells,7.55
same,Rat Uterotrophic Assay % Efficacy,[8],100%
same,"Uterotrophic Assay ED50, determined in the mouse",[9],40^c μg/day
C[C@]12CC[C@@H]3c4ccc(O)cc4CC[C@H]3[C@@H]1CC[C@@H]2O [17β-estradiol],MCF-7 Cell Growth % Efficacy,MCF-7 cells,100%
same,pEC50,MCF-7 cells,10.70
same,"Serum Cholesterol, mean (SD)",OVX rat [1],80 (3.5)^c mg/dL
same,increase in serum OC,OVX rat [3],prevented this increase
same,"Relative Serum OC Level, mean (SD)",OVX rat [3]; experiment 1,100 (33)^b
same,"Relative Serum OC Level, mean (SD)",OVX rat [3]; experiment 2,100 (16)^b
same,Rat Uterotrophic Assay ED50,[8],0.16 µg/day
same,Rat Uterotrophic Assay % Efficacy,[8],100%
same,osteoblast surface,OVX rat [5]; experiment 1,suppressed at the control level
same,Mineral apposition rate (MAR),OVX rat [5]; experiment 1,maintained at the control level
same,mineralizing surface (cancellous),"OVX rat [5]; experiment 1, vs vehicle-treated control rats",significantly lower
same,cancellous bone volume,"OVX rat [5]; second experiment, mean ±SD",24.0±5.5%
same,periosteal bone formation rate,OVX rat [6],inhibited periosteal bone formation rate to a level below that of vehicle-treated control rats
same,greater uterine weight compared to vehicle-treated OVX animals,OVX rat [7],167%
same,"Uterine Weight, mean (SD)",OVX rat [7]; [10],"269 (48)^b,c mg"
same,"Body Weight, mean (SD)",OVX rat [7]; [10],310 (24)^b g
same,"Uterine Weight, mean (SD)",OVX rat [7]; [11],"225 (30)^b,c mg"
same,"Body Weight, mean (SD)",OVX rat [7]; [11],303 (12)^b g
same,increase in overall body weight after ovariectomy,OVX rat [7],not observed
CC/C(=C(/CC)c1ccc(O)cc1)c1ccc(O)cc1 [diethylstilbestrol],MCF-7 Cell Growth % Efficacy,MCF-7 cells,100%
same,Rat Uterotrophic Assay % Efficacy,[8],100%
same,"Uterotrophic Assay ED50, determined in the mouse",[9],3^c μg/day
